We go through two molecules from US20240391909A1, “DISULFIDE COMPOUND, POLYSULFIDE COMPOUND, AND USE THEREOF” (KUMIAI CHEMICAL INDUSTRY CO., LTD., priority 2021, published 2024).

Structures are written as SMILES.

The test system of this test is Helicoverpa armigera. In words: Insecticidal activity test against Helicoverpa armigera (cabbage leaf dip). Format: in vivo. Conditions: hatched larvae, 25° C., after 6 days. How it is done: A wettable powder prepared in accordance with Formulation Example 1 was diluted with water to a concentration of 500 ppm as the active ingredient. A cabbage leaf was dipped in the resultant chemical solution, air-dried, and then put in a plastic cup. Five hatched larvae of Helicoverpa armigera were released therein, and the resultant was covered. Thereafter, the resultant was placed in a constant temperature chamber of 25° C., and after 6 days, the number of dead larvae was counted to obtain a corrected mortality rate in accordance with the following equation of Expression 1. The test was performed in duplicate.

Setting [1] is: 500 ppm active ingredient, same test run with comparative formula A, 2-a retested at the same time.

Turning to `Cn1nc(C(F)(F)F)c(CSSCc2c(C(F)(F)F)nn(C)c2OC(F)F)c1OC(F)F` [Compound 2-a, 1,2-bis[(5-difluoromethoxy-1-methyl-3-trifluoromethylpyrazol-4-yl)methyl]disulfide], the corrected mortality rate reads like this: (500 ppm active ingredient (wettable powder diluted with water), first test) 75%; under setting [1], 89%. Under setting [1], `Cc1cc(CSSCc2cc(C)[nH]n2)n[nH]1` [formula A, reference compound] had a corrected mortality rate of 44%.
